These results are taken from patent publication US20060100264A1, “3,3'-Diindolylmethane immune activating compositions” (priority 2004, published 2006).

The subject of one series is STAT1. The experiment in a line: STAT1 phosphorylation (Tyr-701) by Western blot. The format is cell-based, human. The note with it: DIM 6 or 24 h, with or without 15 min IFNγ exposure. The text has this: To acsertain the role of GAS element activation in transcriptional activation by DIM, we examined the effect of this indole on downstream events in the GAS signaling pathway. For this purpose, the effects of DIM on phosphorylation of the signal transduction and activator of transcription factor 1 (STAT1), and the binding of the activated STAT1 dimer to the cognate GAS responsive element were examined. Phosphorylation of STAT1 by Janus-activated kinase (JAK) is the first step in IFNγ signaling following binding to IFNGR1. For these studies, cells were pretreated with DIM for 6 or 24 h followed by a 15 min. exposure to IFNγ. STAT1 phosphorylation levels in cell lysates of DIM-treated cells were compared to controls that received IFNγ but had not been treated with DIM. Phosphorylation was measured by Western blot analysis using an antibody specific to STAT1 phosphorylated on Tyr-701 residue.
For orientation: In western blotting, separated proteins are transferred to a membrane and probed.

The test system of series [1] is OAS-Luc reporter (promoter and 5′-flanking region of p69-OAS). Nature of the series: OAS-Luc luciferase reporter in transiently transfected MCF-7 cells. The format is cell-based, human. The note with it: 24 h treatment. The procedure:
In a further experiment to examine whether the inducing effects of DIM are at the transcriptional level, the effect of DIM on activities of two luciferase reporter constructs, OAS-Luc (12) and 4GAS-Luc (13) was examined. OAS-Luc contains the promoter and 5′-flanking region (−972) of p69-OAS and GAS-Luc contains four repeats of the consensus GAS element. MCF-7 cells transiently transfected with these reporter constructs were treated with IFNγ, DIM, or a combination of both for 24 h. […] IFNγ induced transcriptional activity of this reporter in a concentration dependent manner to a maximum of about 1.8 fold, which is less than the response of the endogenous gene of about 5.0 fold. In marked contrast to the maximum effects of combined treatments of the inducers on endogenous gene expression (nearly 12-fold increase compared to vehicle treated cells), the reporter gene construct responded with less than a 3-fold increase over the controls.
In general terms: A reporter such as luciferase makes a cellular process visible.

For the next series, the system named is IL-12. Nature of the series: Serum IL-12 by ELISA in mice after DIM. To be noted: 30 μg/kg DIM orally. The format is in vivo. The procedure:
We firstly investigated the effect of unsubstituted DIM on the production of IL-6, G-CSF, IL-12, TNF-α and IFNγ. A groups of 3 mice was given 30 μg/kg of unsubstituted DIM orally and then sacrificed at 1, 3, 5, 8, and 24 h after drug challenge. Serum was collected, pooled, and assayed for IL-6, G-CSF, IL-12 and TNF-α by ELISA. […] DIM produced an increase in circulating levels of G-CSF and TNF-α with the 3 h time point being maximal. […] DIM also stimulated IL-12 and kinetics were slightly different since the increased levels were sustained for at least 24 h.
(In general: An ELISA detects its analyte on a solid surface through an enzyme-linked reagent.)

The test system of series [2] is IFNγ. Nature of the series: IFNγ mRNA expression in DIM-treated MCF-7 cells (cDNA microarray, Northern blot, quantitative RT-PCR). The class given is cell-based, human. The procedure: (§1) Immune response activating effects of the DIM analogs are examined with cell-based assays for cytokine and cytokine receptor expression. […] We also used a sensitive sandwich ELISA assay to examine levels of IFNγ in medium from confluent cultures of MCF-7 cells that were treated for up to 3 days. DIM derivatives confirmed to have immune response activating activity in our reporter and ELISA assays are subsequently screened in a whole animal cytokine production and Y. enterocolitica infection studies, as described below in Examples VIII and IX.
An initial cDNA gene expression microarray screen of human breast cancer MCF-7 cells treated with DIM, followed by confirmation of results using Northern blots and quantitative RT-PCR, established the transcriptional activation of IFNγ, IFNγ receptor (IFNGR1), oligoadenylate-synthase (OAS) family member protein 69 (p69-OAS), and interferon-inducible protein 56 (p56), a protein closely related to OAS. […] Maximum induction for IFNγ, IFNGR1, p69-OAS and p56 were 4.6, 3.8, 3.2 and 4.0 fold, respectively.

Series [3] deals with IFNγ. The experiment in a line: Sandwich ELISA of IFNγ in medium from confluent MCF-7 cultures. To be noted: vehicle control virtually undetectable. The class given is cell-based, human. As to the method: as §1
Using a sensitive sandwich ELISA assay, we examined levels of IFNγ in medium from confluent cultures of MCF-7 cells that were treated with DIM for up to 3 days. […] Levels of IFNγ in the medium of cultured cells were increased following incubations for 1 and 3 days from virtually undetectable levels in the vehicle treated control to approximately 50±10 pg/mL and 80±30 pg/mL, respectively, for the indole treated cells.

A further series relates to MHC-I complex. The experiment in a line: Flow cytometry of cell surface MHC-I expression (FITC-conjugated HLA-ABC antibody). The format is cell-based, human. To be noted: no IFNγ. As to the method:
Induced expression of the MHC-I complex is a well-established and important down-stream target of IFNγ-mediated signal transduction. To examine further the possible synergistic effects of DIM on a significant metabolic product of IFNγ signaling, we tested the effects of co-treatment with DIM on IFNγ induced expression of MHC-I complex in MCF-7 cells.
Flow cytometry analysis of cell surface MHC-I expression was conducted using FITC-conjugated HLA-ABC antibody. In an initial control experiment, cultured MCF-7 cells were pre-treated with 30 μM DIM for 48 hours and then with or without 10 ng/mL IFNγ for another 16 hours. […] In a subsequent experiment in which cells were treated with a range of IFNγ concentrations and analyzed with the anti-MHC-I antibody, a strong signal indicative of IFNγ-induced MHC-I expression was detectable at 0.1 ng/mL and appeared to plateau at 10 ng/mL. In cells treated with vehicle control only, MHC-I expression was not detected in greater than 99% of cells.
Exposure to DIM of cells treated with 10 ng/mL of IFNγ, about 95% of which expressed MHC-I, produced a strong time dependent increase in MFV from 76.04 to 131.41. […] As expected, addition of an IFNγ blocking antibody into the medium before the treatments abrogated the inducing effects of co-treatments of IFNγ and DIM on MHC-I expression, confirming the requirement of the cytokine for the observed effects.

A short description of series [4]: Estimated blood concentration of DIM from dietary broccoli. Further details: species or system human. The note with it: approximately 12 mg DIM from 200 g broccoli daily, maximum absorption assumed. The procedure:
We observed the immune response activating activity of DIM at physiologically relevant concentrations. A person of average weight who consumes 200 g of broccoli daily will obtain approximately 12 mg of DIM. With maximum absorption of DIM, the blood concentration of DIM will reach approximately 10 μM. Therefore, in vivo concentrations of DIM from dietary Brassica vegetables represent the effective levels of DIM in vitro.

The next series has as its system MHC-II. The experiment in a line: MHC-II expression in MCF-7 cells. The class given is cell-based, human. The text has this: In an analogous further experiment, we observed no effect of DIM or IFNγ on MHC-II expression in the MCF-7 cells.

As for `c1ccc2c(Cc3c[nH]c4ccccc34)c[nH]c2c1` [DIM, 3,3′-Diindolylmethane], the “STAT1 phosphorylation (Tyr-701)” value in the series on STAT1 is on record as “did not induce STAT1 phosphorylation”. In series [1], the “Maximum induction of OAS-Luc reporter” value is “about 2.3 fold”. Besides, the “Time for which increased IL-12 levels were sustained” value in the series with IL-12 is listed as “at least 24 h”. In addition, the “Maximum induction of IFNγ mRNA” value in the series with IFNγ [2] (MCF-7 cells treated with DIM) is listed as 4.6 fold. The “Treatment time at which IFNγ expression was fully induced” value in the series with IFNγ [2] (MCF-7 cells treated with DIM) stood at 6 h. Besides, the “IFNγ mRNA level following 48 h of DIM treatment” value in the series on IFNγ [2] (MCF-7 cells, 48 h) is “returned to near control levels”. Besides, the “Level of IFNγ in the medium of cultured cells” value is “approximately 50±10 pg/mL” in the series on IFNγ [3] (MCF-7, incubation 1 day) and ~80 ± 30 pg/mL with IFNγ [3] (MCF-7, incubation 3 days). In addition, the “Expression of the MHC-I complex, DIM treatment alone” value in the series with MHC-I complex is given as “no significant effect”. Besides, in series [4], the “Blood concentration of DIM” value is listed as “approximately 10 μM”. Moreover, the “Effect on MHC-II expression” value in the series on MHC-II is given as “no effect”.
